Source: PubChem BioAssay (NCI)
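Tested at 5 concentrations; 48 h exposure; 96-well plates; endpoints linearly interpolated, else capped at highest concentration. At the TGI there is no net growth.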

Legend:
Assay in all cases: DTP human tumour cell line panel, 48 h
SK-MEL-28 melanoma = system: SK-MEL-28 melanoma
NCI-H460 lung = system: NCI-H460 lung
SK-MEL-2 melanoma = system: SK-MEL-2 melanoma
OVCAR-5 ovarian = system: OVCAR-5 ovarian
MDA-MB-435 = system: MDA-MB-435
HOP-92 NSCLC = system: HOP-92 NSCLC
RXF 393 renal = system: RXF 393 renal
SR leukemia = system: SR leukemia
NCI/ADR-RES ovarian = system: NCI/ADR-RES ovarian
NCI-H522 lung = system: NCI-H522 lung
ACHN renal = system: ACHN renal
SK-OV-3 ovarian = system: SK-OV-3 ovarian
CAKI-1 renal = system: CAKI-1 renal
HCT-116 colon = system: HCT-116 colon
U251 CNS = system: U251 CNS
SNB-75 CNS = system: SNB-75 CNS
SNB-19 CNS = system: SNB-19 CNS
TK-10 renal = system: TK-10 renal
SW-620 colon = system: SW-620 colon
MDA-N = system: MDA-N
786-0 renal = system: 786-0 renal
COLO 205 colon = system: COLO 205 colon
CCRF-CEM leukemia = system: CCRF-CEM leukemia
DU-145 prostate = system: DU-145 prostate
SF-539 CNS = system: SF-539 CNS
K-562 leukemia = system: K-562 leukemia
M14 melanoma = system: M14 melanoma
A498 renal = system: A498 renal
MCF7 breast = system: MCF7 breast
RPMI-8226 leukemia = system: RPMI-8226 leukemia
SK-MEL-5 melanoma = system: SK-MEL-5 melanoma
OVCAR-3 ovarian = system: OVCAR-3 ovarian
MDA-MB-231 breast = system: MDA-MB-231 breast
HL-60(TB) leukemia = system: HL-60(TB) leukemia
T-47D breast = system: T-47D breast
IGROV1 ovarian = system: IGROV1 ovarian
HS 578T breast = system: HS 578T breast
OVCAR-8 ovarian = system: OVCAR-8 ovarian
SN12C renal = system: SN12C renal
HOP-62 NSCLC = system: HOP-62 NSCLC
HT29 colon = system: HT29 colon
UACC-257 melanoma = system: UACC-257 melanoma
EKVX NSCLC = system: EKVX NSCLC
UO-31 renal = system: UO-31 renal
MALME-3M melanoma = system: MALME-3M melanoma
A549 NSCLC = system: A549 NSCLC
LOX IMVI melanoma = system: LOX IMVI melanoma
HCC-2998 colon = system: HCC-2998 colon
OVCAR-4 ovarian = system: OVCAR-4 ovarian
SF-268 CNS = system: SF-268 CNS
SF-295 CNS = system: SF-295 CNS
PC-3 prostate = system: PC-3 prostate
MOLT-4 leukemia = system: MOLT-4 leukemia
KM12 colon = system: KM12 colon
UACC-62 melanoma = system: UACC-62 melanoma
NCI-H23 lung = system: NCI-H23 lung
NCI-H226 lung = system: NCI-H226 lung
HCT-15 colon = system: HCT-15 colon

CC(C(O)c1ccccc1)C(O)(C(F)(F)F)C(F)(F)F (centres undefined)
TGI (SK-MEL-28 melanoma): > 100 µM | TGI (NCI-H460 lung): > 100 µM | TGI (SK-MEL-2 melanoma): > 100 µM | TGI (OVCAR-5 ovarian): > 100 µM | TGI (MDA-MB-435): > 100 µM | TGI (HOP-92 NSCLC): > 100 µM | TGI (RXF 393 renal): > 100 µM | TGI (SR leukemia): > 100 µM | TGI (NCI/ADR-RES ovarian): > 100 µM | TGI (NCI-H522 lung): > 100 µM | TGI (ACHN renal): > 100 µM | TGI (SK-OV-3 ovarian): > 100 µM | TGI (CAKI-1 renal): > 100 µM | TGI (HCT-116 colon): > 100 µM | TGI (U251 CNS): > 100 µM | TGI (SNB-75 CNS): > 100 µM | TGI (SNB-19 CNS): > 100 µM | TGI (TK-10 renal): > 100 µM | TGI (SW-620 colon): > 100 µM | TGI (MDA-N): > 100 µM | TGI (786-0 renal): > 100 µM | TGI (COLO 205 colon): > 100 µM | TGI (CCRF-CEM leukemia): > 100 µM | TGI (DU-145 prostate): > 100 µM | TGI (SF-539 CNS): > 100 µM | TGI (K-562 leukemia): > 100 µM | TGI (M14 melanoma): > 100 µM | TGI (A498 renal): > 100 µM | TGI (MCF7 breast): > 100 µM | TGI (RPMI-8226 leukemia): > 100 µM | TGI (SK-MEL-5 melanoma): > 100 µM | TGI (OVCAR-3 ovarian): > 100 µM | TGI (MDA-MB-231 breast): > 100 µM | TGI (HL-60(TB) leukemia): > 100 µM | TGI (T-47D breast): > 100 µM | TGI (IGROV1 ovarian): > 100 µM | TGI (HS 578T breast): > 100 µM | TGI (OVCAR-8 ovarian): > 100 µM | TGI (SN12C renal): > 100 µM | TGI (HOP-62 NSCLC): > 100 µM | TGI (HT29 colon): > 100 µM | TGI (UACC-257 melanoma): > 100 µM | TGI (EKVX NSCLC): > 100 µM | TGI (UO-31 renal): > 100 µM | TGI (MALME-3M melanoma): > 100 µM | TGI (A549 NSCLC): > 100 µM | TGI (LOX IMVI melanoma): > 100 µM | TGI (HCC-2998 colon): > 100 µM | TGI (OVCAR-4 ovarian): > 100 µM | TGI (SF-268 CNS): > 100 µM | TGI (SF-295 CNS): > 100 µM | TGI (PC-3 prostate): > 100 µM | TGI (MOLT-4 leukemia): > 100 µM | TGI (KM12 colon): > 100 µM | TGI (UACC-62 melanoma): > 100 µM | TGI (NCI-H23 lung): > 100 µM | TGI (NCI-H226 lung): > 100 µM | TGI (HCT-15 colon): > 100 µM

CC(C)/C(Cl)=N\OC(=O)Nc1cccc(Cl)c1
TGI (SK-MEL-28 melanoma): 35.4 µM | TGI (NCI-H460 lung): 18.6 µM | TGI (SK-MEL-2 melanoma): 30 µM | TGI (OVCAR-5 ovarian): 18.3 µM | TGI (RXF 393 renal): 32.5 µM | TGI (SR leukemia): 7.22 µM | TGI (NCI/ADR-RES ovarian): > 57 µM | TGI (NCI-H522 lung): 3.33 µM | TGI (ACHN renal): 18.4 µM | TGI (SK-OV-3 ovarian): > 58.2 µM | TGI (CAKI-1 renal): 34.8 µM | TGI (HCT-116 colon): 36.2 µM | TGI (U251 CNS): 34.4 µM | TGI (SNB-75 CNS): 33.2 µM | TGI (SNB-19 CNS): > 100 µM | TGI (TK-10 renal): 28.6 µM | TGI (SW-620 colon): 9.83 µM | TGI (MDA-N): 28.6 µM | TGI (786-0 renal): 29.1 µM | TGI (COLO 205 colon): 4.61 µM | TGI (CCRF-CEM leukemia): 5.05 µM | TGI (DU-145 prostate): 51.2 µM | TGI (SF-539 CNS): 36.8 µM | TGI (K-562 leukemia): 4.7 µM | TGI (M14 melanoma): 11 µM | TGI (A498 renal): 33.2 µM | TGI (MCF7 breast): 32 µM | TGI (RPMI-8226 leukemia): 25 µM | TGI (SK-MEL-5 melanoma): 26.6 µM | TGI (OVCAR-3 ovarian): 10.8 µM | TGI (MDA-MB-231 breast): 30.3 µM | TGI (HL-60(TB) leukemia): 3.3 µM | TGI (T-47D breast): 68.5 µM | TGI (IGROV1 ovarian): 35 µM | TGI (HS 578T breast): 72.8 µM | TGI (OVCAR-8 ovarian): 29.4 µM | TGI (SN12C renal): 32.4 µM | TGI (HOP-62 NSCLC): > 86.1 µM | TGI (HT29 colon): 35.1 µM | TGI (UACC-257 melanoma): 26.8 µM | TGI (EKVX NSCLC): 31.7 µM | TGI (UO-31 renal): 33.3 µM | TGI (MALME-3M melanoma): 24.1 µM | TGI (A549 NSCLC): 35.7 µM | TGI (LOX IMVI melanoma): 8.71 µM | TGI (HCC-2998 colon): 31.7 µM | TGI (OVCAR-4 ovarian): 27 µM | TGI (SF-268 CNS): 47.2 µM | TGI (SF-295 CNS): > 58.9 µM | TGI (PC-3 prostate): 29.7 µM | TGI (MOLT-4 leukemia): 7.88 µM | TGI (KM12 colon): 31.6 µM | TGI (UACC-62 melanoma): 46.3 µM | TGI (NCI-H23 lung): 34 µM | TGI (NCI-H226 lung): 38.9 µM | TGI (HCT-15 colon): 31.3 µM
